From patent US12371454B2, “Cyclic peptide compound having Kras inhibitory action” (priority 2019, dated 2025)
Positions of bridges follow the written chain, without caps; N, C: chain ends. Non-standard residues stand in square brackets, D forms with d. Residues, ends and D or L forms follow the SMILES beside them. *: point of attachment. hPhe(3-Cl-4-CF3) = N[C@@H](CCc1ccc(C(F)(F)F)c(Cl)c1)C(=O)O; 3Oxa8azabicyclo(3.2.1)octane = C1CC2COCC1N2*; NMeAbu(4,4,4-F3) = CN[C@@H](CC(F)(F)F)C(=O)O; NMeGly(cPent) = CN[C@H](C(=O)O)C1CCCC1; NMeCha = CN[C@@H](CC1CCCCC1)C(=O)O; NMeAhp(2) = CCCCC[C@H](NC)C(=O)O; NMeChg = CN[C@H](C(=O)O)C1CCCCC1; NMeD = CN[C@@H](CC(=O)O)C(=O)O; NMeL = CN[C@@H](CC(C)C)C(=O)O; NEtAla = CCN[C@@H](C)C(=O)O; NMeV = CN[C@H](C(=O)O)C(C)C; Trifluoroethyl = FC(F)(F)C*; NMeS = CN[C@@H](CO)C(=O)O; Piperidide = C1CCN(*)CC1; Pyrrolidide = C1CCN(*)C1; Ac5c = NC1(C(=O)O)CCCC1; NEtG = CCNCC(=O)O; Sar = CNCC(=O)O

Key:
[1] = test system: Human pancreatic cancer cell line AsPC-1; assay: Measurement of AsPC-1 cell growth inhibition (AsPC-1 CGI); assay type: cell-based; details: 96 h
Procedure, shortened: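 AsPC-1 cells in 15% FBS RPMI-1640 were exposed to test compound for 96 hours at 37° C, with CellTiter-Glo as endpoint.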

[2] = molecular target: T1, Kras and SOS1 (biotin-tagged human Kras loaded with GDP, His-tagged human SOS1) (Homo sapiens, UniProt P01116, G12D); assay: Protein-protein interaction inhibition between Kras and SOS1 (KrasGl2D-SOS PPI) using AlphaScreen; assay type: binding; details: AlphaScreen; biotin-tagged human Kras loaded with GDP, His-tagged human SOS1; read-out: KRAS G12D-SOS PPI IC50
T1 construct: made in house; host or cells: E. coli (stated for Kras only)
T1 sequence (P01116 1-188 isoform P01116-2 G12D): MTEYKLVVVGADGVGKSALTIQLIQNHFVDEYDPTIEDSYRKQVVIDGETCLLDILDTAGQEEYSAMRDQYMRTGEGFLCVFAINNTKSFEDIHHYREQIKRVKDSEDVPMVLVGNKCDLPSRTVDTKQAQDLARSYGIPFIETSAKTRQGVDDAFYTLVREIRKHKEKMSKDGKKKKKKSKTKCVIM
Procedure, shortened: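 AlphaScreen format: Ni donor beads capture His-SOS1, streptavidin acceptor beads capture biotinylated Kras (E. coli-expressed, GDP-loaded post-purification). Excite 680 nm, read 520-620 nm.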

With `CC[C@H](C)[C@@H]1NC(=O)[C@H](CC(C)C)N(C)C(=O)C[C@@H](C(=O)N2C3CCC2COC3)N(C)C(=O)[C@H](C(C)C)N(C)C(=O)C2(CCCC2)NC(=O)[C@@H]2CCCN2C(=O)[C@H](CCc2ccc(C(F)(F)F)c(Cl)c2)NC(=O)CN(C)C(=O)[C@H](CC2CCCCC2)N(C)C(=O)CN(C)C(=O)CN(C)C1=O` [Compound 1954] ([NMeL]I[Sar][Sar][NMeCha][Sar][hPhe(3-Cl-4-CF3)]P[Ac5c][NMeV][NMeD]-{3Oxa8azabicyclo(3.2.1)octane}; lactam N-11) as the compound, how does the IC50 [1] read?
Its IC50 is 100 to 500 nM.

And the IC50 [2]?
The IC50 was 2.3 nM.

For `CC[C@H](C)[C@@H]1NC(=O)[C@H](C)N(CC)C(=O)C[C@@H](C(=O)N2CCCCC2)N(C)C(=O)[C@H](C(C)C)N(C)C(=O)C2(CCCC2)NC(=O)[C@@H]2CCCN2C(=O)[C@H](CCc2ccc(C(F)(F)F)c(Cl)c2)NC(=O)CN(C)C(=O)[C@H](CC2CCCCC2)N(C)C(=O)CN(C)C(=O)CN(C)C1=O` [Compound 1051] ([NEtAla]I[Sar][Sar][NMeCha][Sar][hPhe(3-Cl-4-CF3)]P[Ac5c][NMeV][NMeD]-Piperidide; lactam N-11), which IC50 [1] is on record?
The IC50 was 100 to 500 nM.

What about the IC50 [2] of the same compound?
Its IC50 is 2.9 nM.

How did the IC50 [1] turn out when `CC[C@H](C)[C@@H]1NC(=O)[C@H](CC(C)C)N(C)C(=O)C[C@@H](C(=O)N2CCCCC2)N(C)C(=O)[C@H](C2CCCCC2)N(C)C(=O)C2(CCCC2)NC(=O)[C@@H]2CCCN2C(=O)[C@H](CCc2ccc(C(F)(F)F)c(Cl)c2)NC(=O)CN(C)C(=O)[C@H](COCC(F)(F)F)N(C)C(=O)CN(C)C(=O)CN(C)C1=O` [Compound 732] ([NMeL]I[Sar][Sar][NMeS](Trifluoroethyl)[Sar][hPhe(3-Cl-4-CF3)]P[Ac5c][NMeChg][NMeD]-Piperidide; lactam N-11) was run?
Its IC50 is 100 to 500 nM.

What about the IC50 [2] of the same compound?
Its IC50 is 1.4 nM.

`CC[C@H](C)[C@@H]1NC(=O)[C@H](CC(C)C)N(C)C(=O)C[C@@H](C(=O)N2CCCCC2)N(C)C(=O)[C@H](C2CCCCC2)N(C)C(=O)C2(CCCC2)NC(=O)[C@@H]2CCCN2C(=O)[C@H](CCc2ccc(C(F)(F)F)c(Cl)c2)NC(=O)CN(CC)C(=O)[C@H](CC2CCCCC2)N(C)C(=O)CN(C)C(=O)CN(C)C1=O` [Compound 1203] ([NMeL]I[Sar][Sar][NMeCha][NEtG][hPhe(3-Cl-4-CF3)]P[Ac5c][NMeChg][NMeD]-Piperidide; lactam N-11) was tested. Which IC50 [1] did it give?
Its IC50 is 100 to 500 nM.

What about the IC50 [2] of the same compound?
The IC50 was 2.1 nM.

`CC[C@H](C)[C@@H]1NC(=O)[C@H](C2CCCC2)N(C)C(=O)C[C@@H](C(=O)N2CCCCC2)N(C)C(=O)[C@H](C(C)C)N(C)C(=O)C2(CCCC2)NC(=O)[C@@H]2CCCN2C(=O)[C@H](CCc2ccc(C(F)(F)F)c(Cl)c2)NC(=O)CN(C)C(=O)[C@H](CC2CCCCC2)N(C)C(=O)CN(C)C(=O)CN(C)C1=O` [Compound 393] ([NMeGly(cPent)]I[Sar][Sar][NMeCha][Sar][hPhe(3-Cl-4-CF3)]P[Ac5c][NMeV][NMeD]-Piperidide; lactam N-11) was tested. Which IC50 [1] did it give?
Its IC50 is 100 to 500 nM.

And the IC50 [2]?
The IC50 was 5.3 nM.

Which IC50 [1] does the source give for `CCCCC[C@H]1C(=O)N(C)CC(=O)N[C@@H](CCc2ccc(C(F)(F)F)c(Cl)c2)C(=O)N2CCC[C@H]2C(=O)NC2(CCCC2)C(=O)N(C)[C@@H](C2CCCCC2)C(=O)N(C)[C@H](C(=O)N2CCCCC2)CC(=O)N(C)[C@@H](CC(C)C)C(=O)N[C@@H]([C@@H](C)CC)C(=O)N(C)CC(=O)N(C)CC(=O)N1C` [Compound 1846] ([NMeL]I[Sar][Sar][NMeAhp(2)][Sar][hPhe(3-Cl-4-CF3)]P[Ac5c][NMeChg][NMeD]-Piperidide; lactam N-11) here?
Its IC50 is 100 to 500 nM.

And the IC50 [2]?
The IC50 was 1.1 nM.

For `CC[C@H](C)[C@@H]1NC(=O)[C@H](CC(F)(F)F)N(C)C(=O)C[C@@H](C(=O)N2CCCC2)N(C)C(=O)[C@H](C2CCCCC2)N(C)C(=O)C2(CCCC2)NC(=O)[C@@H]2CCCN2C(=O)[C@H](CCc2ccc(C(F)(F)F)c(Cl)c2)NC(=O)CN(C)C(=O)[C@H](CC2CCCCC2)N(C)C(=O)CN(C)C(=O)CN(C)C1=O` [Compound 647] ([NMeAbu(4,4,4-F3)]I[Sar][Sar][NMeCha][Sar][hPhe(3-Cl-4-CF3)]P[Ac5c][NMeChg][NMeD]-Pyrrolidide; lactam N-11), which IC50 [1] is on record?
Its IC50 is 20 to 50 nM.

What about the IC50 [2] of the same compound?
The IC50 was 0.58 nM.

Which results are given for `CC[C@H](C)[C@@H]1NC(=O)[C@H](C2CCCC2)N(C)C(=O)C[C@@H](C(=O)N2CCCCC2)N(C)C(=O)[C@H](C2CCCCC2)N(C)C(=O)C2(CCCC2)NC(=O)[C@@H]2CCCN2C(=O)[C@H](CCc2ccc(C(F)(F)F)c(Cl)c2)NC(=O)CN(C)C(=O)[C@H](CC2CCCCC2)N(C)C(=O)CN(C)C(=O)CN(C)C1=O` [Compound 1835] ([NMeGly(cPent)]I[Sar][Sar][NMeCha][Sar][hPhe(3-Cl-4-CF3)]P[Ac5c][NMeChg][NMeD]-Piperidide; lactam N-11)?
IC50 [1]: 50 to 100 nM; IC50 [2]: 1.1 nM
